Among the data in US20260193268A1, “TRICYCLIC PI3Ka INHIBITOR, PREPARATION METHOD THEREFOR, AND PHARMACEUTICAL USE THEREOF” (WIGEN BIOMEDICINE TECHNOLOGY (SHANGHAI) CO., LTD., priority 2022, published 2026) are IC50 values, retold here.

Assay [1] concerns HCC1954 cells (with PI3Kα H1047R mutation). Description: In vitro inhibition of HCC1954 cell proliferation (CellTiter-Lumi). Format: cell-based. Particulars: Homo sapiens, HCC1954, 144 h. How it is done: Assay for In Vitro Inhibition of HCC1954 Cell Proliferation by Compounds of the Present Disclosure
The growth of the cells was evaluated, and the IC50 for the inhibition of cell growth by the compounds was calculated.

Assay [2] deals with MCF-7 cells (with PI3Kα E545K mutation). Description: In vitro inhibition of MCF-7 cell proliferation (CellTiter-Lumi). Format: cell-based. Particulars: Homo sapiens, MCF7, 144 h. In a few lines:
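Growth IC50 derived from ATP luminescence (CellTiter-Lumi) after 144 h exposure of MCF-7 cells carrying PI3Kα E545K, plated 2000 cells/well and dosed with serial dilutions one day after seeding.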

The mark [3] stands for this setting: HCC1954 cells, 144 h, CellTiter-Lumi, numeric values, read-out: Inhibitory activity against HCC1954 cells (IC50).
Setting [4] is: numeric values, read-out: Inhibitory activity against MCF-7 cells (IC50).
Setting [5] is: HCC1954 cells, 144 h, CellTiter-Lumi, class symbols, read-out: Inhibitory activity against HCC1954 cells (IC50), class symbols.
Where [6] appears, read: class symbols, read-out: Inhibitory activity against MCF-7 cells (IC50), class symbols.

Where two headings read alike, the source gives them in different places.

On to `C=CC(=O)N1CCc2nc(N3CC(N4CCN(c5ccc6c(c5)-c5nc(N7C(=O)OC[C@H]7C(F)F)cn5CCO6)CC4)C3)sc2C1` [Compound 154], for which the IC50 in assay [1] (setting [3]) worked out at 54 nM; in assay [2] (setting [4]), 4.9 nM.

`CC(C)(C=C(C#N)C(=O)Nc1ccc(N2CC(N3CCN(c4ccc5c(c4)-c4nc(N6C(=O)OC[C@H]6C(F)F)cn4CCO5)CC3)C2)cc1)N1CC(C2COC2)C1` [Compound 314]: the IC50 in assay [1] (setting [5]) and in assay [2] (setting [6]) was less than 50 nM throughout.

For the compound `COCCNC(C)(C)C=C(C#N)C(=O)Nc1ncc(N2CC(N3CCN(c4ccc5c(c4)-c4nc(N6C(=O)OC[C@H]6C(F)F)cn4CCO5)CC3)C2)cn1` [Compound 302], the IC50 in assay [1] (setting [5]) and in assay [2] (setting [6]) was less than 50 nM in each case.

Consider `C=CC(=O)N1CCN(CCC(=O)N2CCN(c3ccc4c(c3)-c3nc(N5C(=O)OC[C@H]5C(F)F)cn3CCO4)CC2)CC1` [Compound 13], for which the values for the half-inhibitory concentration (IC50) in assay [1] (setting [3]) and in assay [2] (setting [4]) were 862 nM and 40 nM, respectively.

On to `CC=C(C#N)C(=O)Nc1ccc(N2CC(N3CCN(c4ccc5c(c4)-c4nc(N6C(=O)OC[C@H]6C(F)F)cn4CCO5)CC3)C2)nc1` [Compound 254], for which the IC50 in assay [1] (setting [5]) and in assay [2] (setting [6]) was less than 50 nM each time.

With `CC(C)(C=C(C#N)C(=O)Nc1cnc(N2CC(N3CCN(c4ccc5c(c4)-c4nc(N6C(=O)OC[C@H]6C(F)F)cn4CCO5)CC3)C2)nc1)N1CC2(COC2)C1` [Compound 264], the half-maximal inhibitory concentration (IC50) in assay [1] (setting [5]) and in assay [2] (setting [6]) was less than 50 nM in each case.

In the case of `CCOP(=O)(OCC)OCOC(C)(C)C=C(C#N)C(=O)Nc1ccc(N2CC(N3CCN(c4ccc5c(c4)-c4nc(N6C(=O)OC[C@H]6C(F)F)cn4CCO5)CC3)C2)cc1` [Compound 341], the IC50 in assay [1] (read-out: Inhibitory activity against HCC1954 cells (IC50), class symbols) is less than 50 nM; in assay [2] (setting [6]), less than 50 nM.

Take `CC(C)=CC(=O)CCC(=O)N1CCN(Cc2ccc3c(c2)-c2nc(N4C(=O)OC[C@H]4C(F)F)cn2CCO3)CC1` [Compound 192]: the IC50 is 50 to 100 nM in assay [1] (setting [5]) and less than 50 nM in assay [2] (setting [6]).

In the case of `CN(C)C/C=C/C(=O)Nc1ncc(N2CC(N3CCN(c4ccc5c(c4)-c4nc(N6C(=O)OC[C@H]6C(F)F)cn4CCO5)CC3)C2)cn1` [Compound 286], the IC50 in assay [1] (setting [5]) and in assay [2] (setting [6]) was less than 50 nM throughout.

In the case of `N#CC(=CC1(N)CC1)C(=O)Nc1cnc(N2CC(N3CCN(c4ccc5c(c4)-c4nc(N6C(=O)OC[C@H]6C(F)F)cn4CCO5)CC3)C2)nc1` [Compound 271], the IC50 in assay [1] (setting [5]) and in assay [2] (setting [6]) was less than 50 nM each time.

With `C=CC(=O)Nc1ccc(N2CCN(c3ccc(-c4ccc5c(c4)-c4nc(N6C(=O)OC[C@H]6C(F)F)cn4CCO5)cc3)CC2)cc1` [Compound 196], the half-inhibitory concentration (IC50) in assay [1] (setting [5]) and in assay [2] (setting [6]) was more than 1000 nM throughout.

In the case of `CC(C)(C=C(C#N)C(=O)Nc1ccc(N2CC(N3CCN(c4ccc5c(c4)-c4nc(N6C(=O)OC[C@H]6C(F)F)cn4CCO5)CC3)C2)cc1)N1CCC1` [Compound 171], the IC50 in assay [1] (setting [3]) was 14 nM; in assay [2] (setting [4]) it was 4.5 nM.

Regarding `CC(C)(N)C=C(C#N)C(=O)Nc1ccc(N2CC(N3CCN(c4ccc5c(c4)-c4nc(N6C(=O)OC[C@H]6C(F)F)cn4CCO5)CC3)C2)cc1Cl` [Compound 360], the IC50 in assay [1] (setting [5]) and in assay [2] (setting [6]) was less than 50 nM each time.

On to `C=CC(=O)N1CC[C@@H](CN2CC3(CCN(c4ccc5c(c4)-c4nc(N6C(=O)OC[C@H]6C(F)F)cn4CCO5)CC3)C2)C1` [Compound 23], for which the values for the IC50 in assay [1] (setting [3]) and in assay [2] (setting [4]) were more than 1000 nM and 186 nM, respectively.

As to `CNC(C)(C)C=C(C#N)C(=O)Nc1ccc(N2CC(N3CCN(c4ccc5c(c4)-c4nc(N6C(=O)OC[C@H]6C(F)F)cn4CCO5)CC3)C2)cc1` [Compound 145], the IC50 was 0.6 nM in assay [1] (setting [3]) and 0.1 nM in assay [2] (setting [4]).

With `C=CC(=O)Nc1ccc(N2CC3(CCN(c4ccc5c(c4)-c4nc(N6C(=O)OC[C@H]6C(F)F)cn4CCO5)C3)C2)cc1` [Compound 93], the half-inhibitory concentration (IC50) was found to be 551 nM in assay [1] (setting [3]) and 76 nM in assay [2] (setting [4]).

In the case of `CC(C)C=C(C#N)C(=O)Nc1cnc(N2CC(N3CCN(c4ccc5c(c4)-c4nc(N6C(=O)OC[C@H]6C(F)F)cn4CCO5)CC3)C2)nc1` [Compound 262], the 50% inhibitory concentration (IC50) in assay [1] (setting [5]) and in assay [2] (setting [6]) was less than 50 nM throughout.

In the case of `C=CC(=O)Nc1ccc(CN2CC(N3CCN(c4ccc5c(c4)-c4nc(N6C(=O)OC[C@H]6C(F)F)cn4CCO5)CC3)C2)cc1` [Compound 39], the IC50 amounted to 68 nM in assay [1] (setting [3]) and 11 nM in assay [2] (setting [4]).

For the compound `C=CC(=O)Nc1ccc(N2CCC3(CC2)CCN(c2ccc4c(c2)-c2nc(N5C(=O)OC[C@H]5C(F)F)cn2CCO4)CC3)cc1` [Compound 183], the half-inhibitory concentration (IC50) in assay [1] (setting [3]) is 219 nM; in assay [2] (setting [4]), 21 nM.

As for `C=CC(=O)Nc1ccc(N2CC[C@H](CN3CCN(c4ccc5c(c4)-c4nc(N6C(=O)OC[C@H]6C(F)F)cn4CCO5)CC3)C2)cc1` [Compound 20], the IC50 in assay [1] (setting [3]) was found to be 438 nM; in assay [2] (setting [4]) it was 69 nM.

Consider `C=CC(=O)N1CCC(N2CC[C@H](CN3CCN(c4ccc5c(c4)-c4nc(N6C(=O)OC[C@H]6C(F)F)cn4CCO5)CC3)C2)CC1` [Compound 59], for which the figures for the IC50 in assay [1] (setting [3]) and in assay [2] (setting [4]) were 872 nM and 197 nM, respectively.

As for `CC(C)(C=C(C#N)C(=O)Nc1ccc(N2CC(N3CCN(c4ccc5c(c4)-c4nc(N6C(=O)OC[C@H]6C(F)F)cn4CCO5)CC3)C2)cc1Cl)NC(=O)OC(C)(C)C` [Compound 358], the IC50 in assay [1] (setting [5]) and in assay [2] (setting [6]) was less than 50 nM throughout.

As to `CN(C1COC1)C(C)(C)C=C(C#N)C(=O)Nc1ccc(N2CC(N3CCN(c4ccc5c(c4)-c4nc(N6C(=O)OC[C@H]6C(F)F)cn4CCO5)CC3)C2)cc1` [Compound 274], the half-maximal inhibitory concentration (IC50) in assay [1] (setting [5]) and in assay [2] (setting [6]) was less than 50 nM in each case.

Consider `C=CC(=O)Nc1ccc(N2CC(N3CCN(c4ccc5c(c4)-c4nc(N6C(=O)OC[C@H]6C(F)F)cn4CCO5)CC3)C2)cc1Cl` [Compound 194], for which the IC50 in assay [1] (setting [3]) is 1.2 nM; in assay [2] (setting [4]), 0.1 nM.

Regarding `CNC(C)(C)C=C(C#N)C(=O)Nc1ccc(N2CC(N3CCN(c4ccc5c(c4)-c4nc(N6C(=O)OC[C@H]6C(F)F)cn4CCO5)CC3)C2)c(Cl)c1` [Compound 350], the IC50 in assay [1] (setting [5]) and in assay [2] (setting [6]) was less than 50 nM in each case.

With `C=CC(=O)Nc1cnc(N2CC(N3CCN(c4ccc5c(c4)-c4nc(N6C(=O)OC[C@H]6C(F)F)cn4CCO5)CC3)C2)nc1` [Compound 133], the half-maximal inhibitory concentration (IC50) in assay [1] (setting [3]) was found to be 4.3 nM; in assay [2] (setting [4]), 0.4 nM.

Regarding `C=CC(=O)N1CCC(N2CCC(N3CCN(c4ccc5c(c4)-c4nc(N6C(=O)OC[C@H]6C(F)F)cn4CCO5)CC3)CC2)CC1` [Compound 10], the IC50 is more than 1000 nM in assay [1] (setting [3]) and 146 nM in assay [2] (setting [4]).

Turning to `CN(C)C/C=C/C(=O)Nc1ccc(N2CC(N3CCN(c4ccc5c(c4)-c4nc(N6C(=O)OC[C@H]6C(F)F)cn4CCO5)CC3)C2)c(Cl)c1` [Compound 356], the IC50 in assay [1] (setting [5]) and in assay [2] (setting [6]) was less than 50 nM throughout.

Consider `C=CC(=O)N1CC[C@@H](C(=O)N2CC3(CCN(c4ccc5c(c4)-c4nc(N6C(=O)OC[C@H]6C(F)F)cn4CCO5)CC3)C2)C1` [Compound 21], for which the results for the IC50 in assay [1] (setting [3]) and in assay [2] (setting [4]) were 251 nM and 23 nM, respectively.

Consider `C#CC(=O)Nc1ccc(N2CC(N3CCN(c4ccc5c(c4)-c4nc(N6C(=O)OC[C@H]6C(F)F)cn4CCO5)CC3)C2)cc1` [Compound 152], for which the IC50 in assay [1] (setting [3]) was 49 nM; in assay [2] (setting [4]), 9.7 nM.

For `CC(C)(C=C(C#N)C(=O)Nc1ccc(N2CC(N3CCN(c4ccc5c(c4)-c4nc(N6C(=O)OC[C@H]6C(F)F)cn4CCO5)CC3)C2)cc1)NCC1CCO1` (stereo partly drawn) [Compound 382], the IC50 in assay [1] (setting [5]) and in assay [2] (setting [6]) was less than 50 nM each time.

Consider `CC#CC(=O)Nc1ccc(N2CC(N3CCN(c4ccc5c(c4)-c4nc(N6C(=O)OC[C@H]6C(F)F)cn4CCO5)CC3)C2)cc1` [Compound 132], for which the values for the IC50 in assay [1] (setting [3]) and in assay [2] (setting [4]) were 45 nM and 3.3 nM, respectively.

Consider `CC=C(C#N)C(=O)Nc1ccc(N2CC(N3CCN(c4ccc5c(c4)-c4nc(N6C(=O)OC[C@H]6C(F)F)cn4CCO5)CC3)C2)c(F)c1` [Compound 236], for which the IC50 in assay [1] (setting [5]) and in assay [2] (setting [6]) was less than 50 nM each time.

On to `C=CC(=O)Nc1ccc(N2CC(/C=C/c3ccc4c(c3)-c3nc(N5C(=O)OC[C@H]5C(F)F)cn3CCO4)C2)cc1` [Compound 208], for which the IC50 in assay [1] (setting [5]) is 50 to 100 nM; in assay [2] (setting [6]) it was less than 50 nM.

Take `C=CC(=O)N1CCc2cc(N3CCN(c4ccc5c(c4)-c4nc(N6C(=O)OC[C@H]6C(F)F)cn4CCO5)CC3)ccc2C1` [Compound 206]: the IC50 was 50 to 100 nM in assay [1] (setting [5]) and less than 50 nM in assay [2] (setting [6]).

For the compound `C=CC(=O)N1CCC(CCN2CC3(C2)CN(c2ccc4c(c2)-c2nc(N5C(=O)OC[C@H]5C(F)F)cn2CCO4)C3)CC1` [Compound 19], the 50% inhibitory concentration (IC50) was more than 1000 nM in assay [1] (setting [3]) and 217 nM in assay [2] (setting [4]).
